The results in this text go back to patent publication US12731806B2, “Electrolyte regeneration for organic redox flow batteries based on water-soluble phenazine-based compounds” (CMBLU Energy AG, priority 2020, dated 2026).

A short description of series [1]: physchem. The note with it: aqueous buffer.
Series [2] can be described thus: Solubility of DHPS and its degradation species.

In brackets after ≈: the same amount, converted by molar mass.

On to `Oc1cc2nc3ccccc3nc2cc1O` [DHP, Dihydroxyphenazine], for which the solubility in series [1] lay within 200 to 400 mM (≈ 42.4 to 84.9 mg/mL).

In turn, `O=S(=O)(O)c1ccc2nc3cc(O)c(O)cc3nc2c1` [DHPS, 7,8-Dihydroxyphenazinesulfonic acid] returned a solubility in series [1] of 1400 to 1600 mM (≈ 409 to 468 mg/mL).

For `Oc1ccc2nc3ccccc3nc2c1` [MHP, Monohydroxyphenazine], the “solubility in a DHPS solution” value in series [2] (DHPS solution up to 0.5 M) is “does not change significantly”. Moreover, the solubility in series [2] (aqueous buffer) lay within 100 to 300 mM (≈ 19.6 to 58.9 mg/mL).
